Reference: article PMC12251305 (Molecules, 2025)
Read-outs that look alike come from different tables or passages of the source.

What was measured:
MOR [1] = molecular target: T1, MOR (Homo sapiens, UniProt P35372); experiment: Radioligand competition binding at MOR
DOR [2] = molecular target: T2, DOR (Homo sapiens, UniProt P41143); experiment: Radioligand competition binding at DOR
KOR [3] = molecular target: T3, KOR (Homo sapiens, UniProt P41145); experiment: biochemical; format: binding
C57BL/6J mice [4] = experiment: Antinociception assay (55 °C warm water tail withdrawal assay); format: in vivo, mouse; conditions: 30 nmol i.c.v., 55 °C
hNPFF2-R = molecular target: T4, hNPFF2-R (Homo sapiens, UniProt Q9Y5X5); experiment: Radioligand competition binding at NPFF2-R
T4 construct: expressed in transfected cells; host or cells: CHO cells (membranes)
T4 sequence (Q9Y5X5 whole entry): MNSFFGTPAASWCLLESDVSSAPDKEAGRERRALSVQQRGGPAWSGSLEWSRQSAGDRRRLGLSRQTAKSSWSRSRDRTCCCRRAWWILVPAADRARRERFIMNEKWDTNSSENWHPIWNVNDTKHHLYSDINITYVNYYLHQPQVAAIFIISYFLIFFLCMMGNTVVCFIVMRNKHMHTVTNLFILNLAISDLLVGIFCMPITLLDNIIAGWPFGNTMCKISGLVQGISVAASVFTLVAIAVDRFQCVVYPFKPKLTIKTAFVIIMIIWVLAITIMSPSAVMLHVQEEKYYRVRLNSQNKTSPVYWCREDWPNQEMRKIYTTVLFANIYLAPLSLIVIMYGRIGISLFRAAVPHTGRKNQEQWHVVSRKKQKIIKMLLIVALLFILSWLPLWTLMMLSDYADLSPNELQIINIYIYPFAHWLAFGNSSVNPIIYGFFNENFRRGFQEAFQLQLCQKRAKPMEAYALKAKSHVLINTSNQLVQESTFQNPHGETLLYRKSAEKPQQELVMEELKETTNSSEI

hNPFF1-R = molecular target: T5, hNPFF1-R (Homo sapiens, UniProt Q9GZQ6); experiment: Radioligand competition binding at NPFF1-R
T5 construct: expressed in transfected cells; host or cells: CHO cells
T5 sequence (Q9GZQ6 whole entry): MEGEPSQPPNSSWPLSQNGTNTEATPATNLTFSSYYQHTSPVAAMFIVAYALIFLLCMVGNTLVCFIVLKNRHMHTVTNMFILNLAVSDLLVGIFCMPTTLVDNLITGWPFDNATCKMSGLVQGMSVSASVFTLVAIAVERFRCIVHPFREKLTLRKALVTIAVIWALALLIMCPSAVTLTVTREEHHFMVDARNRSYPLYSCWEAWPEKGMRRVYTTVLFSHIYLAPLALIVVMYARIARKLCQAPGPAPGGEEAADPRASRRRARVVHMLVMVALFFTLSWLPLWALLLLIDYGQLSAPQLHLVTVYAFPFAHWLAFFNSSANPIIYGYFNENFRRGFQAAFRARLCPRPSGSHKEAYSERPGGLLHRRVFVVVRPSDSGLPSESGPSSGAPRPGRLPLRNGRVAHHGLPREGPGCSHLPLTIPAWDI

KOR [5] = molecular target: T3, KOR; experiment: [35S]GTPγS functional assay (agonist mode) at KOR; format: biochemical
C57BL/6J mice [6] = experiment: Anti-hyperalgesia assay (48 °C warm water tail withdrawal assay, NPFF-induced hyperalgesia); format: in vivo, mouse; conditions: 30 nmol i.c.v. two hours before NPFF 30 nmol i.c.v.
DOR [7] = molecular target: T2, DOR; experiment: [35S]GTPγS functional assay (agonist mode) at DOR; format: biochemical
MOR [8] = molecular target: T1, MOR; experiment: [35S]GTPγS functional assay (agonist mode) at MOR; format: biochemical
C57BL/6J mice [9] = experiment: Acute antinociceptive tolerance assay (55 °C warm water tail withdrawal); format: in vivo, mouse; conditions: i.c.v.
C57BL/6J mice [10] = experiment: Locomotor testing (CLAMS); format: in vivo, mouse; conditions: 100 nmol i.c.v., 90 min
C57BL/6J mice [11] = experiment: Excreta assay (intestinal transit); conditions: 90 min
C57BL/6J mice [12] = experiment: Respiration testing (CLAMS); format: in vivo, mouse; conditions: 100 nmol i.c.v., 90 min
[13] = read-out: Receptor Binding, Ki ± SEM DOR
[14] = [3H]EYF, transfected CHO cell membranes, read-out: Receptor Binding, Ki ± SEM NPFF2-R
[15] = read-out: Receptor Binding, Ki ± SEM NPFF1-R
[16] = [35S]GTPγS KOR EC50 ± SEM, agonist mode, standard U-69,593
[17] = GTPγS Delta Agonist Functional Assay EC50 (Figure S2 curve fit), Figure S2, axis Log(M), DPDPE run beside each compound
[18] = [35S]GTPγS DOR EC50 ± SEM, agonist mode, standard DPDPE
[19] = GTPγS Mu Agonist Functional Assay EC50 (Figure S2 curve fit)
[20] = GTPγS Kappa Agonist Functional Assay EC50 (Figure S2 curve fit), Figure S2, axis Log(M), U69,593 run beside each compound

T3 sequence (P41145 whole entry): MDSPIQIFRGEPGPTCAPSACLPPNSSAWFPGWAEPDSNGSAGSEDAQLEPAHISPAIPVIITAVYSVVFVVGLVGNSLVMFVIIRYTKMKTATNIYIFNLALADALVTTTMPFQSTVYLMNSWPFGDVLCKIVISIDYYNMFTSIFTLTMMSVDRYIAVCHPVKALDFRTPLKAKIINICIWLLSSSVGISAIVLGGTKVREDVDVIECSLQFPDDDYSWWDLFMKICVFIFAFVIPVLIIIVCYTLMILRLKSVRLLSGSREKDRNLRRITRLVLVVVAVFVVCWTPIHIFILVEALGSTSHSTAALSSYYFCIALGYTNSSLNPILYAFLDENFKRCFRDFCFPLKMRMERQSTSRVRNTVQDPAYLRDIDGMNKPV
T2 sequence (P41143 whole entry): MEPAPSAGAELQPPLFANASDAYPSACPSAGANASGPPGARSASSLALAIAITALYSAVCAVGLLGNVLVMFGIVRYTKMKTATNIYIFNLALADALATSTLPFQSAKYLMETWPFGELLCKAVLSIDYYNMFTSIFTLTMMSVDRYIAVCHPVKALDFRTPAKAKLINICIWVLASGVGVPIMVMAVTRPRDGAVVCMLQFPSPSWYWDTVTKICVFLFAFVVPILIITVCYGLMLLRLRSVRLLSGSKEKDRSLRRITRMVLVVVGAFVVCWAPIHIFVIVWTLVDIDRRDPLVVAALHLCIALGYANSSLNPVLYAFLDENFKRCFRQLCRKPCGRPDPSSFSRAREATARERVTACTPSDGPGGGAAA
T1 sequence (P35372 whole entry): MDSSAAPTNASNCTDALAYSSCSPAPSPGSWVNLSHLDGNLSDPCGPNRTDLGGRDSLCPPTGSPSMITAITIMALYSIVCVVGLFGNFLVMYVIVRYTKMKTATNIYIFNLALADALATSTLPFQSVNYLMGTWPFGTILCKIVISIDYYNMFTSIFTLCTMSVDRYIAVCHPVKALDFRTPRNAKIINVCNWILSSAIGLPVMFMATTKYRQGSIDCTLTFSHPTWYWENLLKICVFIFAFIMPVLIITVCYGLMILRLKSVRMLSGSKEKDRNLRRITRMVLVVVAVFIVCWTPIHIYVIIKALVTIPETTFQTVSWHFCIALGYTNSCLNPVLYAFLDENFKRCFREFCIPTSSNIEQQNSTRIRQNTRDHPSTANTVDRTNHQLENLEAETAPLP

SMILES | Ki (MOR [1]) [nM] | Ki (KOR [3]) [nM] | antinociceptive activity over time (screening) (C57BL/6J mice [4]) | Ki (DOR [2]; [13]) [nM] | Ki (hNPFF2-R; [14]) [nM] | Ki (hNPFF1-R; [15]) [nM] | EC50 (KOR [5]; [16]) [M] | prevention of NPFF-induced hyperalgesia (screening) (C57BL/6J mice [6]) | EC50 (DOR [7]; [17]) [M] | EC50 (DOR [7]; [18]) [M] | EC50 (MOR [8]; [35S]GTPγS MOR EC50 ± SEM) [nM] | EC50 (KOR [5]; [20]) [M] | also measured
CC(C)C[C@H](NC(=O)[C@@H](N)Cc1ccccc1)C(=O)N[C@@H](Cc1ccccc1)C(=O)N[C@@H](CCC(N)=O)C(=O)N1CCC[C@H]1C(=O)N[C@@H](CCC(N)=O)C(=O)N[C@@H](CCCN=C(N)N)C(=O)N[C@@H](Cc1ccccc1)C(N)=O [NPFF, neuropeptide FF, reference compound] | > 10000 | > 10000 | – | – | – | – | – | – | – | – | – | – | Ki (DOR [2]): > 10000 nM
N=C(N)Nc1cccc(C(=C2CCN(Cc3ccccc3)CC2)c2ccc(O)cc2)c1 [Compound 14a, 1-(3-((1-Benzylpiperidin-4-ylidene)(4-hydroxyphenyl)methyl)phenyl)guanidine] | 33.5 ± 4.7 | 32.3 ± 3.5 | did not produce statistically significant antinociception | 2.33 ± 0.6 | > 10000 | 1720 ± 308 | 4.82e-07 ± 8.16e-08 | greater anti-NPFF activity | 4.55e-07 | 4.55e-07 ± 6.17e-08 | 420 ± 54.5 | – | reduction of affinity at DOR relative to 13a (DOR [2]; hydroxyl shifted from 3′- to 4′- position): 4 fold; reduction of affinity at KOR relative to 13a (KOR [3]): 11 fold; EC50 (MOR [8]; [19]): 420 nM
CN1CC[C@]23c4c5ccc(O)c4O[C@H]2[C@@H](O)C=C[C@H]3[C@H]1C5 [morphine, reference compound] | – | – | – | – | – | – | – | – | – | – | – | – | antinociception ED50 (95% CI), single administration (C57BL/6J mice [9]; 55 °C, baseline dose response): 2.35 (1.13–5.03) nmol; antinociception ED50 (95% CI), second administration (C57BL/6J mice [9]; given 8 h after a first dose (morphine 3 nmol, 22b 8.7 nmol), 55 °C): 22.5 (8.48–61.9) nmol; rightward shift of antinociceptive dose response (acute tolerance) (C57BL/6J mice [9]; second administration 8 h after first): 9.6 fold; effect on ambulation (spontaneous locomotor activity) (C57BL/6J mice [10]): increased ambulation; number of excreted fecal boli (C57BL/6J mice [11]; 30 nmol i.c.v.): 1.8 ± 0.8 boli; number of excreted fecal boli (C57BL/6J mice [11]; 100 nmol i.c.v.): 1.5 ± 0.6 boli; effect on respiration rate (C57BL/6J mice [12]): significant respiratory depression
N=C(N)Nc1cccc(C(=C2CCN(Cc3ccccc3)CC2)c2ccccc2)c1 [Compound 22a, 1-(3-((1-Benzylpiperidin-4-ylidene)(phenyl)methyl)phenyl)guanidine] | 6.45 ± 1.23 | 91 ± 9.9 | displayed antinociception in vivo second only to 22b | 3.37 ± 0.59 | 2570 ± 423 | 1400 ± 61 | 2.55e-07 ± 5.77e-08 | more moderate, yet still statistically significant, effect | 2.56e-07 | 2.56e-07 ± 2.49e-08 | 102 ± 21.3 | – | –
N=C(N)Nc1cccc(C(=C2CCN(Cc3ccccc3)CC2)c2cccc(O)c2)c1 [Compound 13a, 1-(3-((1-Benzylpiperidin-4-ylidene)(3-hydroxyphenyl)methyl)phenyl)guanidine] | 5.06 ± 0.21 | 2.82 ± 0.39 | did not show statistically significant antinociceptive activity | 0.481 ± 0.192 | 7080 ± 1260 | 2180 ± 280 | 4.18e-08 ± 4.9e-09 | more moderate, yet still statistically significant, effect | – | 2.41e-08 ± 2.5e-09 | 28.3 ± 2.5 | 4.18e-08 | EC50 (MOR [8]; [19]): 28.3 nM
N=C(N)Nc1ccc(C(=C2CCN(Cc3ccccc3)CC2)c2ccc(O)cc2)cc1 [Compound 14b, 1-(4-((1-Benzylpiperidin-4-ylidene)(4-hydroxyphenyl)methyl)phenyl)guanidine] | – | 56.6 ± 3.8 | displayed antinociception in vivo second only to 22b | – | – | – | 1.36e-07 ± 2.37e-08 | more moderate, yet still statistically significant, effect | – | – | – | 1.36e-07 | Ki (MOR [1]; read-out: Receptor Binding, Ki ± SEM MOR): 313 ± 11 nM; Ki (DOR [2]): 6.46 ± 1.11 nM; Ki (hNPFF2-R): 4820 ± 1010 nM; Ki (hNPFF1-R): 1980 ± 288 nM; EC50 (DOR [7]; Figure S2, axis Log(M), DPDPE run beside each compound, read-out: GTPγS Delta Agonist Functional Assay EC50 (Figure S2 curve fit)): 2.27e-07 M; EC50 (DOR [7]; agonist mode, standard DPDPE, read-out: [35S]GTPγS DOR EC50 ± SEM): 2.27e-07 ± 1.25e-08 M; EC50 (MOR [8]): 18600 nM
N=C(N)Nc1ccc(C(=C2CCN(Cc3ccccc3)CC2)c2cccc(O)c2)cc1 [Compound 13b, 1-(4-((1-Benzylpiperidin-4-ylidene)(3-hydroxyphenyl)methyl)phenyl)guanidine] | 56.2 ± 7.5 | 30.6 ± 1.1 | lacked any marked analgesic activity | 1.67 ± 0.61 | 6020 ± 1150 | 605 ± 136 | 2.68e-07 ± 3.19e-08 | greater anti-NPFF activity | 9.61e-09 | 9.62e-09 ± 1.27e-09 | 1440 ± 226 | 2.68e-07 | –
